Test results reported in the supplement of paper PMC10307832.

What was measured:
Assay in all cases: relative viability (nuclei count vs DMSO), 5 days (fraction); higher = more cells survive
QS11 + Foretinib = compound: C1CC2=C(C1)C=C(C=C2)OC3=NC(=C4C(=N3)N(C=N4)CC5=CC=C(C=C5)C6=CC=CC=C6)N[C@@H](CC7=CC=CC=C7)CO [QS11] + COc1cc2c(Oc3ccc(NC(=O)C4(C(=O)Nc5ccc(F)cc5)CC4)cc3F)ccnc2cc1OCCCN1CCOCC1 [Foretinib] (partner 0.25 µM)
Procedure, shortened: (§1)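 Values are medians from duplicate plates. Each reflects relative viability, defined as the nuclei count of treated wells over that of vehicle wells. Lung cancer cell lines in 1536-well plates were pin-tool dosed one day after seeding with one drug alone or with a fixed anchor-drug dose plus five library-drug doses (not always all listed) in √10 steps, then fixed, stained and imaged at 4× after 5 days.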

AZ628 + Pemetrexed = compound: CC1=C(C=C(C=C1)NC(=O)C2=CC(=CC=C2)C(C)(C)C#N)NC3=CC4=C(C=C3)N=CN(C4=O)C [AZ628] + Nc1nc2[nH]cc(CCc3ccc(C(=O)N[C@@H](CCC(=O)O)C(=O)O)cc3)c2c(=O)[nH]1 [Pemetrexed] (partner 0.2 µM)
Procedure, shortened: as §1

[1] = compound: C[As](C)SC[C@H](NC(=O)CC[C@H](N)C(=O)O)C(=O)NCC(=O)O [Darinaparsin] + Cc1cc(Nc2cc(N3CCN(C)CC3)nc(Sc3ccc(NC(=O)C4CC4)cc3)n2)n[nH]1 [Tozasertib] (partner 0.1 µM)
Procedure, shortened: as §1

[2] = compound: C[As](C)SC[C@H](NC(=O)CC[C@H](N)C(=O)O)C(=O)NCC(=O)O [Darinaparsin] + Nc1ncn([C@H]2C[C@H](O)[C@@H](CO)O2)c(=O)n1 [Decitabine] (partner 2 µM)
Procedure, shortened: as §1

| Cell Line | relative viability (QS11 + Foretinib; first compound 0.08 µM) | relative viability (QS11 + Foretinib; first compound 0.253 µM) | relative viability (QS11 + Foretinib; first compound 0.8 µM) | relative viability (QS11 + Foretinib; first compound 2.53 µM) | relative viability (QS11 + Foretinib; first compound 8 µM) | relative viability (AZ628 + Pemetrexed; first compound 0.08 µM) | relative viability (AZ628 + Pemetrexed; first compound 0.253 µM) | relative viability (AZ628 + Pemetrexed; first compound 0.8 µM) | relative viability (AZ628 + Pemetrexed; first compound 2.53 µM) | relative viability (AZ628 + Pemetrexed; first compound 8 µM) | relative viability ([1]; first compound 0.08 µM) | relative viability ([1]; first compound 0.8 µM) | relative viability ([1]; first compound 2.53 µM) | relative viability ([1]; first compound 8 µM) | relative viability ([2]; first compound 0.08 µM) | relative viability ([2]; first compound 0.8 µM) | relative viability ([2]; first compound 2.53 µM) | relative viability ([2]; first compound 8 µM) |
| --- | --- | --- | --- | --- | --- | --- | --- | --- | --- | --- | --- | --- | --- | --- | --- | --- | --- | --- |
| NCI-H23 | 1.01 | 1.1 | 0.753 | 0.863 | 0.961 | 0.616 | 0.464 | 0.419 | 0.45 | 0.396 | 0.372 | 0.333 | 0.348 | 0.754 | 0.341 | 0.292 | 0.35 | 0.311 |
| NCI-H647 | 1.17 | 1.24 | 0.988 | 1.09 | 1.06 | 0.201 | 0.17 | 0.179 | 0.161 | 0.151 | 0.0828 | 0.282 | 0.232 | 0.385 | 0.444 | 0.39 | 0.346 | 0.476 |
| NCI-H1915 | 1.17 | 1.18 |  | 1.07 | 1.01 | 0.518 | 0.506 | 0.455 | 0.359 | 0.242 | 0.502 | 0.479 | 0.427 | 0.435 | 0.288 | 0.239 | 0.254 | 0.256 |
| 201T | 1.18 | 1.08 | 0.868 | 1.04 | 0.632 | 0.347 | 0.345 | 0.308 | 0.339 | 0.352 | 1.04 | 0.914 | 0.994 | 1.12 | 0.853 | 0.83 | 0.875 | 0.861 |
| NCI-H3122 | 0.979 | 1.08 |  | 1.05 | 0.749 | 0.185 | 0.166 | 0.161 | 0.159 | 0.151 | 0.446 | 0.41 | 0.377 | 0.417 | 0.425 | 0.437 | 0.42 | 0.442 |
| NCI-H2170 | 1.02 | 0.987 | 0.77 | 1.06 | 1.06 | 0.285 | 0.259 | 0.267 | 0.3 | 0.266 | 0.667 | 0.793 | 0.617 | 1.03 | 0.488 | 0.502 | 0.544 | 0.458 |
| HCC-78 | 0.538 | 0.494 | 0.606 | 0.689 | 0.66 | 0.95 | 0.905 | 0.892 | 0.89 | 0.915 | 0.449 | 0.461 | 0.386 | 0.491 | 0.729 | 0.668 | 0.65 | 0.853 |
| HARA | 0.841 | 0.933 |  | 0.944 | 1.2 | 0.255 | 0.221 | 0.226 | 0.231 | 0.193 | 0.153 | 0.103 | 0.125 | 0.0804 | 0.6 |  | 0.51 | 0.603 |
| NCI-H2347 | 0.825 | 1.18 | 1.01 | 0.942 | 0.994 | 0.401 | 0.415 | 0.354 | 0.464 | 0.321 | 0.587 |  | 0.555 | 0.469 | 0.667 | 0.632 | 0.733 | 0.697 |
| NCI-H1437 | 1.31 | 1.23 | 0.973 | 1.17 | 1.12 | 0.332 | 0.293 | 0.292 | 0.296 | 0.294 | 0.439 | 0.394 | 0.353 | 0.434 | 0.653 | 0.565 | 0.583 | 0.599 |
| LXF-289 | 0.994 | 1.05 | 0.704 | 0.875 | 0.834 | 0.939 | 0.722 | 0.893 | 0.866 | 0.678 | 0.204 | 0.195 | 0.204 | 0.229 | 0.41 | 0.424 | 0.347 | 0.4 |
| LU99A | 0.785 | 0.796 | 0.855 | 0.772 | 0.748 | 0.191 | 0.186 | 0.215 | 0.215 | 0.175 | 0.262 | 0.295 | 0.256 | 0.243 | 0.887 | 0.863 | 0.925 | 1.06 |
| NCI-H358 | 0.596 | 0.777 | 1 | 0.936 | 0.52 | 0.172 | 0.159 | 0.152 | 0.142 | 0.142 | 0.1 | 0.102 | 0.124 | 0.101 | 0.189 | 0.21 | 0.231 | 0.193 |
| NCI-H1666 | 0.908 | 1.05 | 0.653 | 0.85 | 0.582 | 0.788 | 0.79 | 0.766 | 0.788 | 0.715 | 0.623 | 0.612 | 0.745 | 0.579 | 0.679 | 0.74 | 0.766 | 0.786 |
| LOU-NH91 | 0.854 | 0.926 | 0.904 | 0.875 | 0.94 | 0.345 | 0.384 | 0.332 | 0.36 | 0.339 | 0.743 | 0.647 | 0.666 | 0.761 | 0.876 | 0.771 | 0.782 | 0.799 |
| RERF-LC-KJ | 0.883 | 0.86 | 0.62 | 0.79 | 0.834 | 0.475 | 0.474 | 0.464 | 0.508 | 0.467 | 0.482 | 0.483 | 0.447 | 0.472 | 0.728 | 0.68 | 0.687 | 0.561 |
